Legend:
[1] = target: T1, FLAG-tagged Vanin-1 (AA 22-493, T26I) (Homo sapiens, UniProt O95497, T26I); assay: Vanin-1 enzymatic assay; format: biochemical; conditions: 0.1 nM Vanin-1, 3 μM D-pantethine, pantothenic acid formation by RapidFire MS; geometric mean if multiple measurements; read-out: VNN-1 IC50
T1 construct: FLAG-tagged Vanin-1 (AA 22-493, T26I, produced internally); FLAG; made in house
T1 sequence (O95497 22-493 T26I): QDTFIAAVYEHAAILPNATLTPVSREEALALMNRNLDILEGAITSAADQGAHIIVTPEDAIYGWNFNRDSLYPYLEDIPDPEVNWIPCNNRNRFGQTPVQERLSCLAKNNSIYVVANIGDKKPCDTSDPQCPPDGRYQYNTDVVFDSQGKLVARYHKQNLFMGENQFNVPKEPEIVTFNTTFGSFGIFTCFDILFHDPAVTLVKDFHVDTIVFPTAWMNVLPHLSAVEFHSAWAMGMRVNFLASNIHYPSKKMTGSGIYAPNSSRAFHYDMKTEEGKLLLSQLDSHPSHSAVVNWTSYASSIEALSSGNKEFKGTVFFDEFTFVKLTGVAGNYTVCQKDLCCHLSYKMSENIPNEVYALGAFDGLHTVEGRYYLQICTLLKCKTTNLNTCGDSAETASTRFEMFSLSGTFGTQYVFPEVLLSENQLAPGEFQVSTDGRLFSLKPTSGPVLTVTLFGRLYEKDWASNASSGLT
Experimental: The test compounds are dissolved in 100% DMSO at a concentration of 10 mM and in a first step diluted in DMSO to a concentration of 5 mM, followed by serial dilution steps in 100% DMSO. Dilution factor and number of dilution steps may vary according to needs. Typically 8 different concentrations by 1:5 dilutions are prepared, a further intermediate dilutions of the substances is carried out with assay buffer resulting in 1% final DMSO concentration in the assay.
0.1 nM of FLAG-tagged Vanin-1 (AA 22-493, T26I, produced internally) and test compounds are incubated at room temperature for 20 minutes in assay buffer (1 mM DTT, 0.0025% Brij-35, 50 mM HEPES, pH7.5). D-Pantethine (Sigma, Cat #P2125-5G) in assay buffer is added (final concentration 3 μM) and incubated for additional 30 minutes at room temperature. Total assay volume typically is 40 μl but might be adjusted according to needs. Reaction is stopped by adding equal volume of stop solution as the reaction mixture to reach 100 nM HD-pantothenic acid (as an internal standard) and 1% TFA. Assay plates are centrifuged for 2 minutes and the formation of pantothenic acid is detected by RapidFire Mass Spectrometry (mobile phase A: 0.1% formic acid and 0.01% trifluoroacetic acid in water; mobile phase B: 47.5% acetonitrile, 47.5% methanol, 0.1% formic acid and 0.01% trifluoroacetic acid in water) using a C18, 12 μL cartridge (Agilent Cat #G9205A).
The values given in Table I result from measurements of one or more samples. In case of multiple measurements the geometric mean values are given.

Pantetheinase (vanin) = assay: Human Whole Blood assay; format: cell-based; conditions: pantethine substrate, pantothenic acid formation by RapidFire MS, read-out: HWB IC50
Experimental: Human Whole Blood assay: Pantetheinase (vanin) converts panteheine into pantothenic acid and cysteamine. Accordingly, in the described protocol vanin activity is quantified by formation of pantothenic acid after pantetheine supplementation via pantethine. The assay is applicable to identify vanin inhibitors. Compound stocks are dissolved in DMSO at 10 mM. Further dilutions are performed in RPMI 1640 medium (Gibco, #A-10491-01) and final concentrations in the assay are 0.032 nM-500 nM.
Human blood is drawn into a blood bag (1% heparin, 50 I.E./mL). Blood is aliquoted into cavities of 96-deep-well plates at 290 μL and mixed with 10 μL compound solution or vehicle (30 sec at 1400 rpm on a shaker). Equilibration follows at room temperature, 250 rpm and for 30 min. The assay is starts by adding 10 μL of substrate solution (20 μM pantethine in 1 mM DTT, 0.0025% Brij-35, 50 mM HEPES, pH7.5) to each well, except for some blank wells which receive […] substrate buffer (1 mM DTT, 0.0025% Brij-35, 50 mM HEPES, pH7.5) only. Samples are thoroughly shaken (30 sec, 1400 rpm) and reaction is allowed to take place at room temperature, 250 rpm and for 5 min. The reaction is stopped by addition of a vanin tool inhibitor in excess (BI-1 total conc. 10 μM). Centrifugation of the plate follows at 4° C., 665 G for 10 min. Then the blood plasma samples (100 μL) are transferred into another 96-deep-well plate and proteins are precipitated (5 min on ice) by adding 100 μL of ice cold precipitation solution (1 μM labelled pantothenic acid (di-β-alanine-13C6,15N2 calcium salt, Sigma, #705837) in acetonitrile). Afterwards the plate is centrifuged (4° C., 3220 G, 10 min) and supernatants (50 μL) are collected into another 96-deep-well plate and mixed (10 sec, 1400 rpm) with 150 μL ice cold formic acid (0.1%, Carl Roth GmbH+Co.KG, #CP03.1). The formation of pantothenic acid is detected by RapidFire Mass Spectrometry. A TripleQuad 6500+ (ABSciex, Germany) is equipped with an LC-1290 system, a RapidFire autosampler (Agilent, Germany) and a C18 cartridge Type C 12 μL (Agilent Cat #G9526-80000). Mobile phase A is consisting of 0.09% formic acid and 0.01% trifluoroacetic acid in water and mobile phase B of 0.09% formic acid and 0.01% trifluoroacetic acid in acetonitrile/methanol/water=47.5/47.5/5.

| SMILES | IC50 [1] | IC50 (Pantetheinase (vanin)) |
| --- | --- | --- |
| CC(=O)N(C)[C@H]1CCN(C(=O)c2ccc(NC(C)(C)c3ccc(Cl)cc3)nc2)C1 [Example 4.7] | 0.22 nM | 3.68 nM |
| CC(=O)N(C)[C@H]1CCN(C(=O)c2ccc(NCc3cccnc3)nc2)C1 [Example 7.1, N-Methyl-N-[(3S)-1-(6-{[(pyridin-3-yl)methyl]amino}pyridine-3-carbonyl)pyrrolidin-3-yl]acetamide] | 0.13 nM | 1.78 nM |
| CN(C(=O)C1CC(F)(F)C1)[C@H]1CCN(C(=O)c2ccc(NC(C)(C)c3cccnc3)nc2)C1 [Example 8.2] | 0.08 nM | 1 nM |
| CC1(C#N)CCN(C(=O)c2ccc(NC(C)(C)c3cccnc3)nc2)C1 (stereo not shown) [Example 8.3] | 0.08 nM | 0.85 nM |
| CN(C(=O)C1CC(F)(F)C1)[C@H]1CCN(C(=O)c2ccc(NCc3cccnc3)nc2)C1 [Example 8.4] | 0.13 nM | 1.16 nM |
| CN(c1ncccn1)[C@H]1CCN(C(=O)c2ccc(NCc3cccnc3)nc2)C1 [Example 8.5] | 0.14 nM | 16.3 nM |
| CN(C(=O)C1CC1)[C@H]1CCN(C(=O)c2ccc(NC3(c4cncnc4)CC3)nc2)C1 [Example 8.6] | 0.15 nM | 1.84 nM |
| CC(=O)N(C)[C@H]1CCN(C(=O)c2ccc(NC(C)(C)c3cccnc3)nc2)C1 [Example 8.7] | 0.16 nM | 3.29 nM |
| O=C(c1ccc(NCc2ccc(Cl)cc2)nc1)N1CC[C@H](N2CCCC2=O)C1 [Example 8.9] | 0.32 nM | 4.89 nM |
| CN(C(=O)C1(C)CCC1)[C@H]1CCN(C(=O)c2ccc(NC3(c4cncnc4)CC3)nc2)C1 [Example 8.10] | 0.33 nM | 2.16 nM |
| O=C(c1ccc(NCc2cccnc2)nc1)N1CCC2(CCOCC2)C1 [Example 8.11] | 0.34 nM | 3.3 nM |
| O=C(c1ccc(NCc2ccc(Cl)cc2)nc1)N1CC[C@H](N2CCOC2=O)C1 [Example 8.12] | 0.41 nM | 10.4 nM |
| CC(=O)N(C)[C@H]1CCN(C(=O)c2ccc(N[C@@H](C)c3ccc(C(F)(F)F)nc3)nc2)C1 [Example 9.1, N-Methyl-N-[(3S)-1-(6-{[(1S)-1-[6-(trifluoromethyl)pyridin-3-yl]ethyl]amino}pyridine-3-carbonyl)pyrrolidin-3-yl]acetamide] | 0.39 nM | 2.78 nM |
| CC(=O)N(C)[C@H]1CCN(C(=O)c2ccc(N[C@@H](C)c3cccc(C(F)(F)F)c3)nc2)C1 [Example 9.3] | 0.17 nM | 4.28 nM |
| CC(=O)N(C)[C@H]1CCN(C(=O)c2ccc(N[C@@H](C)c3ccc(Cl)cc3)nc2)C1 [Example 9.4] | 0.27 nM | 4.23 nM |
| CC(=O)N(C)[C@H]1CCN(C(=O)c2ccc(N[C@@H](C)c3ccc(F)cc3)nc2)C1 [Example 9.5] | 0.4 nM | 2.19 nM |
| CC(=O)N(C)[C@H]1CCN(C(=O)c2ccc(N[C@@H](C)c3ccc(F)cc3F)nc2)C1 [Example 9.6] | 0.42 nM | 5.03 nM |

From patent US12240828B2, “Heteroaromatic compounds as vanin inhibitors” (Boehringer Ingelheim International GmbH, priority 2018, dated 2025)
